Laboratory results reported in patent US10300107B2, “Compositions and methods for CaMKII inhibitors and uses thereof” (THE REGENTS OF THE UNIVERSITY OF COLORADO, priority 2007, dated 2019).
Entries after “also recorded” stand apart in the source; their conditions may differ. Where no end group is shown, it is not given here.

Columns and labels:
[1] = test system: CaMKII; format: biochemical
Protocol: (§1) CaMKII activity assays. Standard CaMKII assays were done for 1 min at 30° C. previously described, with 20 nM CaMKII (subunit, not holoenzyme concentration), 50 mM PIPES pH 7.2, 0.1 mg/ml BSA, 10 mM MgCl2, 100 μM [γ-^32P] ATP (˜1 Ci/mmol), 1 mM CaCl2, 1-2 μM CaM, and 30-60 μM AC2 peptide (or syntide2). The reactions were spotted onto Whatman P81 phosphocellulose paper rectangles (˜2×2.5 cm). To remove free radioactivity, the paper rectangles were rinsed and washed for 30 min under agitation in 0.5% phosphoric acid or water. […] Radioactivity of the bound peptides was quantified in a Beckman 6000TA scintillation counter by the Cherenkov method. Any changes of the standard protocol were done as indicated. For assays of the GFP-CaMKIIα mutants, kinase amounts were normalized by GFP fluorescence in the extract, and total protein was adjusted with Cos-7 extracts.

[2] = test system: CaMKII; assay: Kinase panel (kinase profiling service): CaMKII; format: biochemical
[3] = test system: other kinases of the panel (CaMKIV, PKA, PKCα, JNK1α1, MAPK1, raf); format: biochemical; conditions: 5 μM peptide
Protocol: Kinase panels. A panel of different kinases was tested utilizing a kinase profiling service (Upstate Biotechnology). 40 min reactions at room temperature contained 0.1% BSA and were started by addition of 10 mM MgAcetate and [γ-^33P-ATP], stopped by 0.1% phosphoryic acid, spotted on filter mats, and washed 3×5 min in 75 mM phosphoric acid and 1× in methanol prior to drying and scintillation counting. CaMKII and IV were activated by 5 mM CaCl2 and 1.7 μM CaM in 40 mM Hepes pH 7.4; substrate was 30 μM […] (SEQ ID NO:22). Buffers and substrates for the other kinases are stated in brackets: PKA (8 mM MOPS pH 7, 0.2 mM EDTA; 30 μM Kemptide), PKCα (20 mM Hepes pH 7.2, 0.3% Triton X-100, 0.1 mg/ml phosphatidylserine, 10 μg/ml diacylglycerol; 0.1 mg/ml histone H1), JNK1α1 (50 mM Tris pH 7.5, 0.1 mM EGTA, 0.1% β-mercapto-ethanol; 3 μM ATF), MAPK1 and raf (25 mM Tris, pH 7.5, 0.02 mM EGTA; 250 μM proprietary substrate and 0.66 mg/ml myelin basic protein, respectively). Reactions in presence of 5 μM CN21a were done in duplicate, and normalized to four parallel reactions without inhibitor.

[4] = target: CaMKI (Homo sapiens, UniProt Q14012); assay: CaMKI activity / inhibition; format: biochemical
Description: For curve fit, the Hill coefficient was set as 1.

[5] = target: T1, CaMKII binding to GST-NR2B-c (Homo sapiens, UniProt Q9UQM7); assay: Ca2+/CaM-induced CaMKII binding to immobilized GST-NR2B-c; conditions: Western blot of eluted CaMKII
T1 construct: made in house; host or cells: CaMKII: baculovirus/Sf9; GST-NR2B-c and CaM: bacteria
Protocol: CaMKII binding to NR2B-c was assessed as previously described. Briefly, GST-NR2B-c was immobilized on anti-GST coated microtiter plates, then overlaid with 100 nM CaMKII in presence of Ca^2+/CaM and 1 or 5 μM of various CN peptides. After extensive wash, protein was eluted from the plates by boiling in SDS-loading buffer. Eluted CaMKII was detected by Western-blot as described above.

[6] = target: T2, CaM dissociation from CaMKII (Homo sapiens, UniProt Q9UQM7); assay: TA-CaM dissociation from CaMKII; format: binding; conditions: 5 μM; 150 nM CaMKII, 30 nM TA-CaM
T2 construct: made in house; host or cells: baculovirus/Sf9 cells (CaMKII)
Protocol: TA-CaM dissociation was assessed by increased TA-CaM (30 nM) fluorescence after dissociation from CaMKII or its CaM-binding domain (CBD) (150 nM) during a chase with unlabeled CaM (60 μM). Buffer contained 50 mM Hepes pH 7.4, 150 mM KCl, 2 mM MgCl2, 2 mM MgADP, 2 mM CaCl2, and 0.1 mg/ml BSA. Fluorescence was measured in a time scan (1 sec samples) at 365 nm excitation and 415 nm emission wavelength on a spectro-fluorometer (Fluorolog3; Horiba Jobin Yvon) and was corrected for photobleach (FIG. 16).

[7] = target: T3, CaMKII (Homo sapiens, UniProt Q9UQM7); assay: CaMKII auto- and protein-phosphorylation (MAP2, T286, T305; immuno-blot); format: biochemical; conditions: for CaMKII T305 auto-phosphorylation: CN21 5 μM; for CaMKII T305 auto-phosphorylation / CaMKII T286 auto-phosphorylation: KN93 10 μM; for CaMKII T286 auto-phosphorylation: CN peptides 1-5 μM
T3 construct: made in house; host or cells: baculovirus/Sf9 cells
Protocol: CaMKII auto- and protein-phosphorylation. 10 nM MAP2 (˜140 nM phosphorylation sites) was used instead of substrate peptide, and reaction times were 5 min, unless indicated otherwise. CaMKII concentration was 100 nM subunits (=8.3 nM holoenzymes). Auto- and MAP2-phosphorylation were assessed by Immuno-blot analysis previously derived (Bayer et al., 2002, incorporated herein by reference) with phospho-T286- or -T305-specific antibodies (1:500; PhosphoSolutions) and an anti-phospho-Thr antibody (1:500; Zymed), respectively. Total CaMKIIα was detected with CBα2 antibody (1:2000; GIBCO). Protein were separated on 10% poly-acrylamid SDS Gels, and electro-blotted onto “Protran” 0.2 μm pore nitrocelluse filters (e.g. Schleicher & Schull) or onto PVDF filters (e.g. Perkin Elmer). Alternatively, for quantitative analyses, a vacuum-driven slot-blot manifold (e.g. Schleicher & Schull) was used for transfer onto PVDF membranes. PVDF membranes were air-dried for 15 min, then wetted in Methanol. Blots were blocked in 5% milk in TBS-T (Tris-buffered saline pH 7.6 with 0.1% Tween-20). Antibodies were incubated for 45-60 min at room temperature in 2.5% milk in TBS-T; for the anti-phospho-T305 antibody, 2.5% BSA was used instead. After secondary antibody incubation (anti-mouse or anti-rabbit horseradish peroxidase conjugate; Amersham; 1:4000), detection was done using the “Western Lightning” system (Perkin Elmer) and exposure to “Hyperfilm” (Amersham). For quantitative analysis, chemoluminescence was captured using a ChemiImager 4400 imaging system (Alpha Innotek) instead of film. Only non-saturated images were analyzed, using AlphaEase software.

[8] = target: T3, CaMKII; assay: CaMKII phosphorylation of crude liver extracts or GST-NR2B-c (autoradiography); format: biochemical; conditions: 5 μM
Protocol: Crude liver extracts or NR2B-c were phosphorylated with 100 nM autophosphorylated CaMKII, 2 μM CaM and 40 μM [γ-^32P]-ATP (˜2 Ci/mmole). Pre-auto-phosphorylation (of 300 nM CaMKII) was done for 5 min on ice, in presence of 3 mM CaCl2, 6 μM CaM and 120 μM unlabelled ATP. After addition of [γ-^32P]-ATP and inhibitors as indicated, 2 min reactions at 30° C. were started by addition of substrate protein extract (⅓^rd to 1/12th of total reaction volume), and stopped with 25 mM EDTA. Phosphorylation was detected by autoradiography after gel electrophoresis.

[9] = test system: CaMKII T-site mutants W237R and 1205K; assay: Kinase assay with GFP-CaMKIIα T-site mutants; format: biochemical; conditions: substrate syntide2
Description: In another example, FIG. 3. […] FIG. 3A represents a model of CaMKII kinase domain (Rosenberg et al., 2005) with the substrate binding S-site (indicated), the T286-region binding T-site (indicated), and the regulatory region (shown as ribbon). The arrow indicates the proposed orientation of CN21a binding to the T-site, when the regulatory region is displaced after activation. […] Results are normalized to maximal kinase activity without inhibitor. Error bars show s.e.m. […] Bound CaMKII was eluted and detected by Western blot.
as §1

[10] = test system: hippocampal neurons; assay: Imaging of neuronal filopodia motility; format: cell-based, rat; conditions: 20 min incubation
Protocol: In another example, motility of hippocampal neurons was analyzed. […] Images of GFP expressing hippocampal neurons (5-6 days in vitro) were acquired at 30° C. in 20 s intervals in order to assess motility.
Imaging of neuronal filopodia motility was done similarly as previously described. Hippocampal cultures were prepared from newborn Sprague Dawley rats (Harlan) as previously described, plated onto poly-D-lysine coated glass bottom dishes (MatTek) at a density of ˜2.5×10^6 cells/cm^2 and maintained in Neurobasal A medium with penicillin/streptomycin (50 units/ml), glutamax (2 mM) and B27 supplement (Invitrogen). […] After 5 days in vitro, neurons were transfected with a GFP expression construct (Clonetech) using lipofectamine 2000 (Invitrogen), as described. On the next day neurons were imaged in culture medium on for example, a Zeiss Axiovert 200M systems equipped with a 40× oil immersion objective, Cool Snap HQ CCD camera (Roeper Scientific), Xenon lamp LB-LS/17 (Sutter Instruments) and climate control set to 30° C. and 5% CO2. Fluorescence Images were acquired and analyzed using SlideBook software (Intelligent Imaging Innovations). 16 images were taken in 20 s time intervals, at 100 ms exposure time and bin factor 2. Subtraction image (Δ image) stacks were generated by subtracting one stack (first image deleted) from its duplicate (last image deleted). […]

[11] = test system: Langerhans' islets; assay: Glucose-induced insulin secretion from isolated Langerhans' islets; format: cell-based, rat; conditions: 11 mM glucose; EGTA 0.5 mM, KN93 10 μM, antCN27 5 μM, tatCN21 5 μM
Protocol: Insulin secretion. Langerhans' islets acutely isolated from adult male Wistar rats (Harlan) were obtained. […] Inhibitors or EGTA were added 30 min before stimulation. Insulin secreted into the medium during 90 min stimulation was measured using an ELISA kit (CrystalChem).

[12] = test system: hippocampal and cortical cultures; assay: Glutamate induced neuronal cell death measured by LDH release; format: cell-based, rat
Protocol: In another example, neuronal cell death is measured by LDH release. In this exemplary method, glutamate was used to induce neuronal cell death, A portion of CaMKIIN was fused to a cell penetrating molecule to generate tatCN21a construct.

[13] = test system: 10DIV hippocampal neurons; assay: NMDA induced cell death; format: cell-based; conditions: NMDA plus CNQX 5 minutes, assayed 24 hours after insult
Protocol: Neurons were co-transfected with siRNA or non-targeting RNA (NT) at 8DIV and were assayed at day 10. […] Cells were treated with 300 mM NMDA plus 50 mM CNQX (an AMPAR inhibitor) for 5 minutes and cell death was assayed 24 hours after insult. […] Increased AMPAR expression is thought to lead to increased cell death. Thus, by inducing cell death with NMDA and an AMPAR inhibitor, the AMPAR component was reduced.

[14] = target: T3, CaMKII; assay: Autonomous CaMKII activity (pre-autophosphorylated CaMKII); format: biochemical
Protocol: (§2) Stimulated CaMKII activity was assessed using purified CaMKII, [γ^32P]ATP, and the CaMKII substrate, syntide2. Reaction was initiated by addition of calcium and calmodulin. To measure autonomous activity, CaMKII was pre-autophosphorylated by incubation with calcium and calmodulin, which was then chelated by addition of EDTA prior to adding the kinase to syntide2 and [γ^32P]ATP. […] To measure self-association, purified CaMKII was incubated for five minutes with 1mM ADP, calcium and calmodulin, and the appropriate inhibitor. The reaction mixture was then centrifuged to pellet the self-associated kinase. The supernatant (S) was removed and saved and the pellet (P) was resuspended. Both were then resolved by SDS-PAGE and western-blotted for CaMKII. Self-associated kinase is found in the pellet.

[15] = target: T3, CaMKII; assay: CaMKII self-association in vitro; format: biochemical
Protocol: as §2

[16] = target: calmodulin (CaM) (Homo sapiens, UniProt P0DP23); assay: Binding to calmodulin (slot blot, blot overlay, TA-CaM competition with CBD)
Protocol: TA-labeled CaM represents reduced fluorescence after binding to CaMKII or its CaM binding domain (CBD; −0.05 nM kD for CaM^5; see also FIG. 9G).
Measured was AC2 phosphorylation as described^4. Error bars show s.e.m.

Chain of CaMKI (Q14012 whole entry, species assumed): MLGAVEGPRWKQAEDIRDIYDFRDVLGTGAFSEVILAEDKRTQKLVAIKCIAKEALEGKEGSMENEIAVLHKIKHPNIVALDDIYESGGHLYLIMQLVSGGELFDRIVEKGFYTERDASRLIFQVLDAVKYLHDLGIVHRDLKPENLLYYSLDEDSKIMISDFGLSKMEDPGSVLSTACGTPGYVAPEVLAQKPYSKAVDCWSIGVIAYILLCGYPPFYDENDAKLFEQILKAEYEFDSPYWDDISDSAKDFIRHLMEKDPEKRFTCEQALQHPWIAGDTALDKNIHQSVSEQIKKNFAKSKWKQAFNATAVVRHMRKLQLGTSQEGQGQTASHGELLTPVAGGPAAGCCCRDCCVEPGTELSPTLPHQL

## KRPPKLGQIGRSKRVVIEDDR [CN21]
[1]
  inhibition of CaMKII isoforms α and β: inhibit both major brain CaMKII isoforms, α and β
[1]; CN truncation peptides, substrate peptides AC2 or syntide 2, listed as CN21a
  inhibitory potency on CaMKII activity: contains the full inhibitory potency; also recorded: full inhibitory effect
[1]; phosphorylation of syntide 2, read-out: IC50 of CaMKII inhibition
  IC50: ~100 nM
[1]; versus substrate AC2, Lineweaver-Burk plot
  mechanism of CaMKII inhibition: competitive with AC2
[2]; 5 μM peptide
  CaMKII activity in kinase panel: completely blocked
[3]
  activity of the other kinases of the panel: not affected
[4]
  effect on CaMKI activity: no significant effect
[5]
  CaMKII binding to immobilized GST-NR2B-c / NR2B: efficiently blocked
[6]
  CaM dissociation from CaMKII: slowed down CaM dissociation from CaMKII
[7]
  CaMKII T305 auto-phosphorylation: blocked T305
  CaMKII T286 auto-phosphorylation: no significant effect
[7]; listed as CN21a
  CaMKII T305 auto-phosphorylation: blocks
  CaMKII T286 auto-phosphorylation: not T286 autophosphorylation
[8]
  CaMKII phosphorylation of bacterially expressed GST-NR2B-c: blocks CaMKII phosphorylation
  CaMKII phosphorylation of crude liver protein extracts: blocks CaMKII phosphorylation
[9]
  activity of CaMKII T-site mutants W237R and 1205K compared to GFP-CaMKIIα wild type: significantly less affected

## tatCN21: CN21 fused to the cell penetrating tat sequence (YGRKKRRQRRRKRPPKLGQIGRSKRVVIEDDR)
[1]; 1 μM peptide
  CaMKII-mediated AC2/AC3 phosphorylation at varying CaM concentrations: strongly inhibited
[1]; substrate syntide2
  calcium and calmodulin stimulated CaMKII activity: inhibit calcium and calmodulin stimulated CaMKII activity
[2]; 1 μM peptide
  CaMKII activity in kinase panel: completely blocked CaMKII activity
[2]; 5 μM peptide
  CaMKII activity in kinase panel: blocked CaMKII activity
[4]
  effect on CaMKI activity: dramatically reduces CaMKI activity
[5]
  CaMKII binding to immobilized GST-NR2B-c / NR2B: efficiently blocked
[5]; listed as TatCN21
  CaMKII binding to immobilized GST-NR2B-c / NR2B: inhibited binding
[7]; 1-5 μM peptide
  MAP2 (substrate) phosphorylation by CaMKII: blocked MAP2
[7]
  CaMKII T286 auto-phosphorylation: not T286 phosphorylation
[10]
  motility in hippocampal neurons: inhibits motility in hippocampal neurons
[11]
  glucose-induced insulin secretion: inhibited
[12]; 7DIV cortical, added 1-6 hours post insult
  glutamate induced cell death: inhibits glutamate induced cell death
[12]; added 1 h after the insult
  glutamate induced neuronal cell death: protective also when added 1 h after the insult
[12]; added 1 h after the insult, listed as tatCN21a
  glutamate induced neuronal cell death: also when added 1h after the insult
[12]; present during the insult
  glutamate induced neuronal cell death: reduce by half
[12]; present during the insult, listed as tatCN21a
  glutamate induced neuronal cell death: inhibited glutamate induced neuronal cell death
[13]
  NMDA induced cell death: reduces NMDA-induced cell death
[14]
  autonomous CaMKII activity: inhibits autonomy; also recorded: blocks not only stimulated but also autonomous CaMKII activity
[15]
  CaMKII self-association in vitro: inhibited
[16]
  competition with CBD for binding of TA-labeled CaM: did not show any competition and not
